Laboratory results from article PMC11859928, “Design, Synthesis, and Antiproliferative Activity of Novel Indole/1,2,4-Triazole Hybrids as Tubulin Polymerization Inhibitors” (Pharmaceuticals, 2025).
Where two headings read alike, the source gives them in different places.

Columns and labels:
HOP-62 [1] = assay: NCI one-dose assay; assay type: cell-based; details: Homo sapiens, HOP-62, Non-small cell lung cancer, read-out: Cell growth inhibition %
HT29 = assay: NCI one-dose assay; assay type: cell-based; details: Homo sapiens, HT-29, HT29, Colon cancer, read-out: Cell growth inhibition %
LOX IMVI = assay: NCI one-dose assay; assay type: cell-based; details: Homo sapiens, Melanoma, read-out: Cell growth inhibition %
M14 = assay: NCI one-dose assay; assay type: cell-based; details: Homo sapiens, M14, Melanoma, read-out: Cell growth inhibition %
MCF7 [2] = assay: NCI one-dose assay; assay type: cell-based; details: Homo sapiens, MCF7, Breast cancer, read-out: Cell growth inhibition %
MDA-MB-435 = assay: NCI one-dose assay; assay type: cell-based; details: Homo sapiens, MDA-MB-435, Melanoma, read-out: Cell growth inhibition %
MDA-MB-468 = assay: NCI one-dose assay; assay type: cell-based; details: Homo sapiens, MDA-MB-468, Breast cancer, read-out: Cell growth inhibition %
NCI-H322M = assay: NCI one-dose assay; assay type: cell-based; details: Homo sapiens, Non-small cell lung cancer, read-out: Cell growth inhibition %
OVCAR-4 = assay: NCI one-dose assay; assay type: cell-based; details: Homo sapiens, OVCAR-4, Ovarian cancer, read-out: Cell growth inhibition %
OVCAR-8 = assay: NCI one-dose assay; assay type: cell-based; details: Homo sapiens, OVCAR-8, Ovarian cancer, read-out: Cell growth inhibition %
SF-268 = assay: NCI one-dose assay; assay type: cell-based; details: Homo sapiens, SF-268, CNS cancer, read-out: Cell growth inhibition %
SK-MEL-2 = assay: NCI one-dose assay; assay type: cell-based; details: Homo sapiens, SK-MEL-2, Melanoma, read-out: Cell growth inhibition %
SK-MEL-5 = assay: NCI one-dose assay; assay type: cell-based; details: Homo sapiens, SK-MEL-5, Melanoma, read-out: Cell growth inhibition %
SNB-19 = assay: NCI one-dose assay; assay type: cell-based; details: Homo sapiens, SNB-19, CNS cancer, read-out: Cell growth inhibition %
SNB-75 [3] = assay: NCI one-dose assay; assay type: cell-based; details: Homo sapiens, SNB-75, CNS cancer, read-out: Cell growth inhibition %
SW-620 = assay: NCI one-dose assay; assay type: cell-based; details: Homo sapiens, SW-620, Colon cancer, read-out: Cell growth inhibition %
T-47D = assay: NCI one-dose assay; assay type: cell-based; details: Homo sapiens, T47D, Breast cancer, read-out: Cell growth inhibition %
TK-10 = assay: NCI one-dose assay; assay type: cell-based; details: Homo sapiens, TK-10, Renal cancer, read-out: Cell growth inhibition %
786-0 = assay: NCI one-dose assay; assay type: cell-based, human
A498 = assay: NCI one-dose assay; assay type: cell-based, human
HOP-92 = assay: NCI one-dose assay; assay type: cell-based, human; details: Homo sapiens, HOP-92, HOP-92, Non-small cell lung cancer, read-out: Cell growth inhibition %
UO-31 = assay: NCI one-dose assay; assay type: cell-based, human; details: Homo sapiens, UO-31, UO-31, Renal cancer, read-out: Cell growth inhibition %
HOP-62 [4] = assay: NCI five-dose assay; assay type: cell-based, human; details: HOP-62, Non-small cell lung cancer
NCI-H460 = assay: NCI five-dose assay; assay type: cell-based, human; details: NCI-H460, Non-small cell lung cancer
HCT-116 = assay: NCI five-dose assay; assay type: cell-based, human; details: HCT-116, Colon cancer
SNB-75 [5] = assay: NCI five-dose assay; assay type: cell-based, human; details: SNB-75, CNS cancer
MALME-3M = assay: NCI five-dose assay; assay type: cell-based, human; details: Melanoma
UACC-62 = assay: NCI five-dose assay; assay type: cell-based, human; details: UACC-62, Melanoma
MCF7 [6] = assay: NCI five-dose assay; assay type: cell-based, human; details: MCF7, Breast cancer
NCI 60 cell lines = assay: NCI one-dose assay, full panel; assay type: cell-based, human; details: Homo sapiens, 60 cell, read-out: cell growth inhibition percentage, range
[7] = Homo sapiens, read-out: GI50 Conc. per Cell Lines
[8] = Homo sapiens, 48 h, read-out: LC50 (the source's name)

Question: What does the source list for `O/N=C(\CSc1nnc(-c2c[nH]c3ccccc23)n1-c1ccccc1)c1ccc(Br)cc1` [Compound 7i, (Z)-2-((5-(1H-Indol-3-yl)-4-phenyl-4H-1,2,4-triazol-3-yl)thio)-1-(4-bromophenyl) Ethanone Oxime]?
Answer: inhibition at 10 µM (HOP-62 [1]): 155%; inhibition at 10 µM (HT29): 177%; inhibition at 10 µM (LOX IMVI): 187%; inhibition at 10 µM (M14): 168%; inhibition at 10 µM (MCF7 [2]): 143%; inhibition at 10 µM (MDA-MB-435): 200%; inhibition at 10 µM (MDA-MB-468): 195%; inhibition at 10 µM (NCI-H322M): 173%; inhibition at 10 µM (OVCAR-4): 183%; inhibition at 10 µM (OVCAR-8): 142%; inhibition at 10 µM (SF-268): 156%; inhibition at 10 µM (SK-MEL-2): 166%; inhibition at 10 µM (SK-MEL-5): 124%; inhibition at 10 µM (SNB-19): 109%; inhibition at 10 µM (SNB-75 [3]): 120%; inhibition at 10 µM (SW-620): 186%; inhibition at 10 µM (T-47D): 94%; inhibition at 10 µM (TK-10): 183%; Cell growth inhibition % (786-0; 786-0, Renal cancer, 10 µM): 65.25%; inhibition at 10 µM (786-0; Homo sapiens, 786-0, 786-0, Renal cancer, read-out: Cell growth inhibition %): 65%; Cell growth inhibition % (A498; A498, Renal cancer, 10 µM): 37.85%; inhibition at 10 µM (A498; Homo sapiens, A498, A498, Renal cancer, read-out: Cell growth inhibition %): 38%; inhibition at 10 µM (HOP-92): 111%; inhibition at 10 µM (UO-31): 96.4%; TGI Conc. per Cell Lines (HOP-62 [4]): 3.98 µM; GI50 (HOP-62 [4]; [7]): 1.86 µM; CC50 (NCI-H460; [8]): 68.4 µM; GI50 (NCI-H460; [7]): 3.53 µM; TGI Conc. per Cell Lines (NCI-H460): 12.90 µM; TGI Conc. per Cell Lines (HCT-116): 17.40 µM; CC50 (HCT-116; [8]): > 100 µM; GI50 (HCT-116; [7]): 3.45 µM; CC50 (SNB-75 [5]; [8]): 28.1 µM; GI50 (SNB-75 [5]; [7]): 1.87 µM; TGI Conc. per Cell Lines (SNB-75 [5]): 4.95 µM; CC50 (MALME-3M; [8]): 87 µM; GI50 (MALME-3M; [7]): 3.22 µM; TGI Conc. per Cell Lines (MALME-3M): 14.30 µM; CC50 (UACC-62; [8]): 7.93 µM; GI50 (UACC-62; [7]): 1.77 µM; TGI Conc. per Cell Lines (UACC-62): 3.74 µM; LC50 (MCF7 [6]; Homo sapiens, 48 h): 63.6 µM; GI50 (MCF7 [6]; [7]): 3.49 µM; TGI Conc. per Cell Lines (MCF7 [6]): 15.3 µM; inhibition at 10 µM (NCI 60 cell lines; eight cell lines): 86 to 99%; inhibition at 10 µM (NCI 60 cell lines; forty-nine cell lines with complete cell death): 106 to 200%
